From patent publication US20100292472A1, “PROPHYLACTIC AND THERAPEUTIC MEDICINE FOR MALARIA” (priority 2008, published 2010)
Read-outs that look alike come from different tables or passages of the source.

Key:
P. falciparum strain 3D7 = experiment: Test for growth inhibitory activity against P. falciparum (infected erythrocytes, Giemsa thin blood film); type: cell-based, Plasmodium falciparum; conditions: for EC50: read-out: ED50 (50% growth inhibition concentration, EC50)
Experimental: To investigate growth inhibitory activity against a laboratory strain 3D7 of P. falciparum, the following various compounds were tested: inabenfide (Wako Pure Chemicals, Osaka, Japan), uniconazole P (Wako Pure Chemicals, Osaka, Japan), paclobutrazol (Wako Pure Chemicals, Osaka, Japan), AMO-1618 (CALBIOCHEM, La Jolla, Calif.) and FC-907 as gibberellin inhibitors; thidiazuron (Wako Pure Chemicals, Osaka, Japan), 6-benzyl aminopurine (Wako Pure Chemicals, Osaka, Japan), trans-zeatin (Wako Pure Chemicals, Osaka, Japan) and cis-zeatin (Sigma) as cytokinins; and α-aminooxy acetic acid (Wako Pure Chemicals, Osaka, Japan) as an ethylene inhibitor.
As a culture medium for the P. falciparum strain 3D7, filter-sterilized RPMI 1640 (pH 7.4) containing 10% (v/v) human serum and human erythrocytes at 3% hematocrit (the ratio of erythrocytes in a suspension thereof) was prepared. Each compound was dissolved at predetermined concentrations in an appropriate solvent (water, ethanol or DMSO) and added to wells. To each well, 3D7-infected erythrocytes were added at a starting parasitemia of 0.1% and the total volume was adjusted to 2.5 ml with the culture medium. The plates were incubated for 3 days. Control cultures were prepared so that instead of each compound solution, the equal volume of the corresponding solvent alone was contained, and similarly incubated. After the incubation, a thin blood film from each culture was prepared and stained with Giemsa (E. Merck, Germany). A total of 3000-erythrocytes/1 thin blood film were examined microscopically (immersed in oil, magnified to 1000 times), after which the malarial infection rate was determined using the equation below. The culture was maintained at 37° C. in a CO2—O2—N2 incubator (5% CO2, 5% O2, and 90% N2 atmosphere). The experiments were performed at least twice and each treatment was performed in triplicate. By comparison of the malarial infection rates obtained in control and compound-treated samples, the efficacy of each compound was assessed.
Malarial infection rate=[(number of infected erythrocytes)/(total number of examined erythrocytes)]×100
For compounds showing growth inhibitory activity, the 50% growth inhibition concentration (EC50) was calculated using the following equation.
X1: concentration of the compound showing <50% inhibition rate (μM) Y1: inhibition rate at the concentration X1 X2: concentration of the compound showing >50% inhibition rate (μM) Y2: inhibition rate at the concentration X2

[1] = test system: T. gondii strain 2F tachyzoites; experiment: Test for growth inhibitory activity against T. gondii (β-gal colorimetric proliferation assay in Vero cells); type: cell-based, Toxoplasma gondii; conditions: T. gondii 2F tachyzoites in Vero cells, 2 days
Experimental: To investigate growth inhibitory activity against T. gondii, the following various compounds were tested: inabenfide (Wako Pure Chemicals, Osaka, Japan), paclobutrazol (Wako Pure Chemicals, Osaka, Japan), uniconazole P (Wako Pure Chemicals, Osaka, Japan) and AMO-1618 (CALBIOCHEM, La Jolla, Calif.) as gibberellin inhibitors; thidiazuron (Wako Pure Chemicals, Osaka, Japan) and 6-benzyl aminopurine (Wako Pure Chemicals, Osaka, Japan) as cytokinins; and α-aminooxy acetic acid (Wako Pure Chemicals, Osaka, Japan) as an ethylene inhibitor.
For this test, T. gondii strain 2F tachyzoites were used. The strain 2F was established by transfection of the T. gondii strain RH with a β-galactosidase gene (β-gal, derived from Escherichia coli) [Reference: J. M. Dobrowolski and L. D. Sibley. Toxoplasma invasion of mammalian cells is powered by the actin cytoskeleton of the parasite. Cell 84, 933-939 (1996)]. The 2F strain was kindly provided by Dr. L. David Sibley (Washington University School of Medicine, St. Louis, Mo., US). As a host cell for the parasites, Vero cells were used. Vero cell cultures were incubated with RPMI 1640 medium containing 10% (v/v) FCS in 96-well plates for 2 days and then infected with 2.5×10^5 tachyzoites/well in RPMI 1640 medium containing 3% (v/v) FCS and various concentrations of the compounds. The tachyzoites were harvested after 2 days and the proliferation rate was monitored as a measure of β-gal activity in a colorimetric assay using chlorophenol red β-D-galactopyranoside. The proliferation rate of compound-untreated tachyzoites is set to 100% and the IC50 means the concentration of the compound that inhibits the proliferation rate by 50%.

[2] = Mice; Reported Data; cited from earlier work
[3] = Reported Data; cited from earlier work
[4] = P. falciparum 3D7, 3 days incubation, Table 1
[5] = Plasmodium falciparum, 3D7, Erythrocyte, 72 h

Compound	EC50 (P. falciparum strain 3D7; [4]) [µM]	IC50 ([1]; read-out: IC50 Toxoplasma) [µM]	LD50 [2] [mg/kg]	Mutagenesis [3]	growth inhibition rate (Y1) (P. falciparum strain 3D7; concentration 10 μM (X1), FIG. 1)	growth inhibition rate (Y2) (P. falciparum strain 3D7; concentration 20 μM (X2), FIG. 1)	EC50 (P. falciparum strain 3D7; [5]) [µM]	IC50 ([1]; Toxoplasma gondii, 48 h) [µM]
c1ccc(CNc2ncnc3nc[nH]c23)cc1 [6-Benzylaminopurine, 6-benzyl aminopurine]	19	> 300	1300	No	–	–	–	–
Cc1cc(OC(=O)N2CCCCC2)c(C(C)C)cc1[N+](C)(C)C.[Cl-] [AMO-1618]	10.3	> 1000	0.36	–	48.9	85.4	–	–
CC1=CCCC(C)(C)C1C=CC(C)[N+](C)(C)C (stereo not drawn) [FC-907, N,N,N-trimethyl-1-methyl-(2′,6′,6′-trimethylcyclohex-2′-en-1′-yl) prop-2-enylammonium iodide]	4.26	–	–	–	–	–	–	–
O=C(Nc1ccc(Cl)cc1C(O)c1ccccc1)c1ccncc1 (stereo not drawn) [Inabenfide, inabenfide]	–	–	>15000	No	–	–	4.47	17
CC(C)(C)[C@@H](O)[C@@H](Cc1ccc(Cl)cc1)n1cncn1 [Paclobutrazol, paclobutrazol]	–	–	>5000	–	–	–	27.1	121
O=C(Nc1ccccc1)Nc1cnns1 [Thidiazuron, thidiazuron]	–	–	>5000	No	–	–	17.5	74.5
CC(C)(C)[C@H](O)/C(=C\c1ccc(Cl)cc1)n1cncn1 [Uniconazole P, uniconazole P]	25	97.4	1000	No	–	–	–	–
C/C(=C/CNc1ncnc2nc[nH]c12)CO [cis-Zeatin, cis-zeatin]	742	–	–	–	–	–	–	–
C/C(=C\CNc1ncnc2nc[nH]c12)CO [trans-Zeatin, trans-zeatin]	651	–	1300	–	–	–	–	–
NOCC(=O)O [α-Aminooxy acetic Acid, α-aminooxy acetic acid]	–	–	–	–	–	–	20.3	96.9
